Reference: PubChem BioAssay AID1996
≈ marks a conversion by molar mass, not a printed value.

Settings: buffer; pH 7.4; 200.0 µM

| Compound | solubility kinetic [µg/mL] |
| --- | --- |
| COc1ccc(CCN(C)C(=O)c2ccc3c(=O)n4c(nc3c2)CCCCC4)cc1OC | > 65.3 |
| CCCn1c(=S)[nH]c2sc3c(c2c1=O)CCCC3 | 1.4 (≈ 4.99 µM) |
| COC(=O)c1sccc1-n1cc(C#N)c(=O)n(C)c1=O | > 43.7 |
| CC(C)N1CCN(Cc2nc3c(s2)CCCC3)CC1CCO (centres undefined) | 41.4 (≈ 128 µM) |
| O=C(NCCN1CCCCC1)Nc1ccc(Br)cc1 | 48.4 (≈ 148 µM) |
| O=C(CS(=O)(=O)c1ccccc1)Nc1ccccn1 | > 41.4 |
| O=CN1CCN(C(=O)c2ccc(Br)o2)CC1 | > 43.1 |
| S=C(Nc1ccccc1)Nc1ccc(Br)cc1 | 5.6 (≈ 18.2 µM) |
| CN(C)C(=O)c1c2c(nc3ccccc13)CCCC2 | 32.2 (≈ 127 µM) |
| Cn1c(=O)[nH]c(=O)c2c1nc1n2CCCN1Cc1ccccc1 | 8.1 (≈ 26 µM) |
| O=C1C=C(NCc2ccccc2)c2ccccc2C1=O | 4.6 (≈ 17.5 µM) |
| COc1cc(CCN)ccc1O.Cl | > 30.6 |
| CCOC(=O)CNC(=O)C12CC3CC(C1)CC(c1ccc(C)cc1)(C3)C2 | 3.9 (≈ 11 µM) |
| O=C(O)C1CCc2sc3[nH]c(=S)n(-c4ccccc4)c(=O)c3c21 (centres undefined) | > 51.7 |
| O=C(CN1C(=O)NC2(CCCCCCC2)C1=O)Nc1cccc(Br)c1 | 8.2 (≈ 20.1 µM) |
| CC(=O)c1ccc(NC(=O)CSc2nc3ccccc3c(=O)n2CCCN2CCOCC2)cc1 | > 72.1 |
| Cc1ccc(SCC(=O)NC(=O)NCCC(C)C)c(C)c1 | 1.4 (≈ 4.54 µM) |
| FC(F)(F)c1ccc(-c2csc(-c3ccno3)n2)cc1 | < 0.3 |
| O=C(CCNS(=O)(=O)c1ccc(OC(F)(F)F)cc1)NC1CC1 | > 52.8 |
| COc1cccc(N2C(=O)CC(Sc3nc(C)cc(C)n3)C2=O)c1 (centres undefined) | > 51.5 |
| COc1ccccc1CC(=O)Nc1sc2c(c1C(N)=O)CCCC2 | 2 (≈ 5.81 µM) |
| O=[N+]([O-])c1ccccc1S(=O)(=O)Nc1cccnc1 | > 41.9 |
| Cc1nccn1-c1ccc(C=O)cc1 | 27.6 (≈ 148 µM) |
| O=C(OCCN=C1NS(=O)(=O)c2ccccc21)c1cccs1 | 2.5 (≈ 7.43 µM) |

| Compound | solubility kinetic [µg/mL] |
| --- | --- |
| Cc1cnc(NC(=O)C2CC(=O)N(c3ccc4c(c3)OCCO4)C2)s1 (centres undefined) | 20.2 (≈ 56.2 µM) |
| CCOc1ccccc1C1CC(=O)Nc2cc(OC)c(OC)cc21 (centres undefined) | 0.9 (≈ 2.75 µM) |
| N#Cc1cccnc1N1CCN(C(=O)COCC(=O)O)CC1 | 41 (≈ 135 µM) |
| Cc1cccn2c(=O)c(/C=C(\C#N)C(N)=O)c(Oc3ccccc3)nc12 | 7.9 (≈ 22.8 µM) |
| O=C(c1ccc(C(F)(F)F)cc1)C1CCCN(C(=O)c2cnccn2)C1 (centres undefined) | 45.6 (≈ 126 µM) |
| Cc1ccc(S(N)(=O)=O)cc1NC(=O)C(c1ccccc1)c1ccccc1 | 37 (≈ 97.2 µM) |
| Cc1ccc(NC(=O)C[n+]2cc(-c3ccccc3)n3c2CCC3)c(C)c1.[Cl-] | 55.4 |
| CC(C)CC(OC(=O)c1nsc(Cl)c1Cl)C(=O)NC1CCCC1 (centres undefined) | 22.4 (≈ 59.1 µM) |
| COC(=O)c1cn(Cc2ccc(C(F)(F)F)cc2)cc(F)c1=O | > 49.4 |
| Cc1cccc(NC(=O)CSc2cccc[n+]2[O-])c1C | 39.7 (≈ 138 µM) |
| O=C(c1ccc(Cl)cc1Cl)N1CCc2ccccc21 | 13.9 (≈ 47.6 µM) |
| COCCNC(=O)C(OC(=O)c1cccs1)c1ccc(F)cc1 (centres undefined) | > 50.6 |
| O=[N+]([O-])c1c(NCCO)cc(N2CCC3(CC2)OCCO3)c2nonc12 | > 54.8 |
| Cc1csc(Nc2nc(N)c(C(=O)Nc3cc(Cl)ccc3F)o2)n1 | 3.1 (≈ 8.43 µM) |
| Cc1ccc(C2Nc3ccccc3C(=O)N2CCCN2CCOCC2)cc1 (centres undefined) | 50.3 (≈ 138 µM) |
| COCc1cc(C)nc(NC2CC(C)(C)NC(C)(C)C2)c1C#N | > 47.5 |
| COc1ccc(NC(=O)c2cc(C)no2)cc1OC | > 39.3 |
| COc1ccc(S(=O)(=O)NCC(=O)NCCc2ccc(OC)c(OC)c2)cc1 | > 61.3 |
| S=C(NCc1ccco1)N1CCN(C/C=C/c2ccccc2)CC1 | > 51.2 |
| COc1ccc(C(CNC(=O)CN(C)S(=O)(=O)c2ccc(C)cc2)N2CCCC2)cc1 (centres undefined) | > 66.8 |
| COc1cc(NC(=S)N(C)C)c(OC)cc1Cl | > 41.2 |
| Cc1ccc(Nc2nc(-c3ccc(F)cc3)cs2)nc1 | < 0.2 |
| COc1cccc(C(=O)NC2CCCc3ccccc32)c1 (centres undefined) | 7.8 (≈ 27.7 µM) |
| O=C(O)CCN1C(=O)c2ccc(NC(=O)CCc3ccccc3)cc2C1=O | > 55 |

| Compound | solubility kinetic [µg/mL] |
| --- | --- |
| O=C(CSc1ncccn1)Nc1ccc2c(c1)OCO2 | > 43.4 |
| Cc1cccc(N2CCN(C(=O)c3ccc4[nH]c(C)c(C)c4c3)CC2)c1C | 4.2 (≈ 11.6 µM) |
| O=S(=O)(Nc1ccc(F)cc1)N1CCOCC1 | > 39 |
| NC(=O)CN1C(=O)NC(c2ccccc2)(c2ccccc2)C1=O | > 46.4 |
| CCc1sc(C(=O)Nc2ncccc2C)cc1C | > 39.1 |
| COc1c(Cl)cccc1-c1cn2ccccc2n1 | 2 (≈ 7.73 µM) |
| Cc1ccc(C(=O)NC(=S)NCc2ccccc2)cc1 | < 0.3 |
| COc1ccc(NC(=O)C(=S)NC2CCCCC2)cc1 | < 0.3 |
| COc1ccc(NC(=O)CCCc2ccc(OC)c(C)c2)cc1 | 2.1 (≈ 6.7 µM) |
| N#Cc1cccc(NC(=O)COC(=O)c2ccc[n+]([O-])c2)c1 | > 44.6 |
| O=C(Nc1ccccc1)Oc1cccc(Br)c1 | 35.9 (≈ 123 µM) |
| COc1ccc(OCC(O)CNC(=O)c2cccs2)cc1 (centres undefined) | 36.9 (≈ 120 µM) |
| O=C(Cc1ccc(Br)cc1)NC1CCCc2ccccc21 (centres undefined) | 1.5 (≈ 4.36 µM) |
| Cc1cccc(N)c1-c1c(C)cccc1N | > 31.8 |
| CC1CC(C)CN(C(=O)COC(=O)c2ccc(S(=O)(=O)N(C)c3ccccc3)cc2)C1 (centres undefined) | 7.8 (≈ 17.5 µM) |
| CCS(=O)(=O)N1CCN(C(=O)c2cccc3ccccc23)CC1 | > 49.9 |
| O=C(COC(=O)/C=C/c1ccccc1)NC1CCCC1 | 17.2 (≈ 62.9 µM) |
| O=C(Nc1ccccc1C(=O)O)C1=NN=CC1 | > 34.7 |
| NC(=O)C1CCCCc2c1[nH]c1ccc(Cl)cc21 (centres undefined) | > 39.4 |
| COc1ccccc1CCn1cc(C#N)c(=O)[nH]c1=O | > 40.7 |
| O=C(NCCCCc1ccccc1)c1ccc(Br)cc1 | < 0.7 |
| COc1cc2c(cc1OC)CN(C1CCC(C)CC1)CC2 (centres undefined) | 34.7 (≈ 120 µM) |
| CC1(C)CC(NC(=O)c2cccc(F)c2)CC(C)(C)N1 | 40.8 (≈ 147 µM) |
| Cc1ccc(OCC(=O)NC(C)c2ccccc2)cc1 (centres undefined) | > 40.4 |

| Compound | solubility kinetic [µg/mL] |
| --- | --- |
| O=C(CCn1ccnc1)Nc1cc(Cl)ccc1O | > 39.9 |
| COc1ccc(Nc2nc(OC)nc(N3CCOCC3)n2)cc1 | 21.8 (≈ 68.7 µM) |
| COc1ccc2ccccc2c1CN1CCSCC1 | 21.5 (≈ 78.6 µM) |
| Cc1ccc(OCC(O)CNC2CCCC2)c(C)c1.Cl (centres undefined) | 41.3 |
| Cn1c(C(O)c2ccc(Br)cc2)nc(Cl)c1Cl (centres undefined) | 13.9 (≈ 41.4 µM) |
| CCOc1ccccc1NC(=O)N1CCc2ccccc2C1 | 33.1 (≈ 112 µM) |
| COc1ccc(S(=O)(=O)N2CCOCC2)cc1NC(=O)COC(=O)c1[nH]c(C)c(C(C)=O)c1C | 8.8 (≈ 17.8 µM) |
| Cc1nc(Cl)c(C(=O)NCCc2ccccc2)c(C)c1[N+](=O)[O-] | 3.5 (≈ 10.5 µM) |
| O=C(c1ccc([N+](=O)[O-])o1)N1CCCCCC1 | > 35.7 |
| N/C(=N\O)c1ccccc1N1CCCCC1 | 29.9 (≈ 136 µM) |
| CC(=O)Nc1ccc(Sc2ccccc2C(=O)O)cn1 | > 43.2 |
| CCN(Cc1ccncc1)Cc1c(O)ccc2ccccc12 | 31.1 (≈ 106 µM) |
| O=C(Nc1ccccc1C(F)(F)F)c1cnccn1 | 21.5 (≈ 80.5 µM) |
| Oc1cncc(Cc2ccccc2)c1 | > 27.8 |
| Cc1ccc(S(=O)(=O)Nc2cccc(Cl)c2)cc1NC(=O)C1CC1 | > 54.7 |
| O=C(/C=C/NCc1cccnc1)c1ccc(Br)cc1 | > 47.6 |
| O=C(CSc1ccc([N+](=O)[O-])cn1)Nc1ccc2c(c1)OCCO2 | 0.7 (≈ 2.02 µM) |
| Cc1noc(C)c1COC(=O)/C=C/c1ccc(Cl)cc1 | 6.4 (≈ 21.9 µM) |
| CC1(C)CC(=O)C(C(O)c2ccc([N+](=O)[O-])cc2)C(C)(C)N1 (centres undefined) | 39.9 (≈ 130 µM) |
| O=C(C[n+]1ccccc1)Nc1ccc(Cl)c([N+](=O)[O-])c1.[Cl-] | > 49.2 |
| Cc1ccc(CN2CCc3[nH]c(=S)[nH]c(=O)c3C2)cc1 | 10.5 (≈ 36.5 µM) |
| COc1ccc(NC(=O)C2CC(c3ccccc3Cl)=NO2)cc1 (centres undefined) | 37.6 (≈ 114 µM) |
| Cc1ccc2[nH]c(CSc3ccccc3)cc(=O)c2c1 | 14.9 (≈ 53 µM) |
| CC(=O)c1ccc(N=C2SCCCN2C(=O)C2CCCCC2)cc1 | 42.2 (≈ 123 µM) |

| Compound | solubility kinetic [µg/mL] |
| --- | --- |
| COC(=O)c1ccc(S(=O)(=O)NC(C)(C)C)n1C | 40.2 (≈ 147 µM) |
| CC(=O)C1=C(O)C(=O)N(Cc2ccccc2)C1c1ccc(Cl)cc1 (centres undefined) | > 51.3 |
| CC(Oc1cccnc1[N+](=O)[O-])C(=O)N1CCc2ccccc21 (centres undefined) | > 47 |
| Cl.OCCNCCNCc1ccc(-c2ccccc2)cc1 | > 51.5 |
| COc1ccccc1CC(=O)N1CCN(c2ccccc2)CC1 | > 46.6 |
| Cc1cccn2c(Nc3ccccc3)c(-c3ccccn3)nc12 | 31.2 (≈ 104 µM) |
| Cc1cccc(NC(=O)CN(C)C(=O)C2CC2)c1C | > 39.1 |
| CC(NC(=O)c1ccc(C#N)cc1)C1CC2CCC1C2 (centres undefined) | > 40.3 |
| Cc1ccc(NC(=O)C2CCCN(c3nccc(C)n3)C2)c(C)c1 (centres undefined) | 2.2 (≈ 6.78 µM) |
| CCOC(=O)C1CCN(CCC(=O)Nc2ccc(C)c(C)c2)CC1 | > 49.9 |
| O=S(=O)(NCc1c(Cl)cccc1Oc1ccccc1)c1ccccc1 | 3 (≈ 8.02 µM) |
| COC(=O)c1ccc(COC(=O)CSCC(=O)Nc2ccc(C)cc2C)cc1 | 16 (≈ 39.9 µM) |
| CSC1=C(C#N)C(c2ccncc2)C(C(=O)Nc2ccccc2)=C(C)N1 (centres undefined) | 52.5 (≈ 145 µM) |
| CCc1ccccc1NC(=S)N(CCN(C)C)Cc1cccs1 | 45.6 (≈ 131 µM) |
| COc1ccccc1NC(=O)C1CCCN(c2cnccn2)C1 (centres undefined) | > 46.9 |
| O=C1NCCCCC1NS(=O)(=O)c1ccc(F)c(F)c1 (centres undefined) | 43.1 (≈ 142 µM) |
| COc1cc(C(=O)Nc2cccc(C(C)=O)c2)cc(OC)c1OC | > 49.4 |
| O=S(=O)(Nc1cccc(S(=O)(=O)N2CCCCC2)c1)c1ccc(Cl)s1 | > 63.1 |
| Cc1ccc(C(=O)Nc2cccc(NC(=O)c3ccc(C)o3)n2)o1 | 4 (≈ 12.3 µM) |
| COc1cc2c(cc1OC)CN(c1ccc(C(F)(F)F)cn1)CC2 | 34.9 (≈ 103 µM) |
| Cc1ccc(NC(=O)c2ccc3c(c2)OCCO3)nc1 | > 40.5 |
| CC1(C)CC2CC(C)(CN2C(=S)Nc2ccccc2F)C1 (centres undefined) | 44 (≈ 144 µM) |
| Cn1c(CCC(=O)O)nc2cc(S(=O)(=O)N3CCCC3)ccc21 | > 50.6 |
